Measurements as given in patent US9023816B2, “Bioactive alkaloid compositions and their medical uses” (Asiros A/S, priority 2013, dated 2015).
Read-outs that look alike come from different tables or passages of the source.

Legend:
IkappaB kinase β (IKK-β) = biological target: T1, IkappaB kinase β (IKK-β) (Homo sapiens, UniProt O14920); experiment: IKK-β inhibition, Z'-LYTE Kinase Assay Kit Ser/Thr 5 Peptide (FRET); type: biochemical
T1 construct: purchased Invitrogen
T1 sequence (O14920 1-756): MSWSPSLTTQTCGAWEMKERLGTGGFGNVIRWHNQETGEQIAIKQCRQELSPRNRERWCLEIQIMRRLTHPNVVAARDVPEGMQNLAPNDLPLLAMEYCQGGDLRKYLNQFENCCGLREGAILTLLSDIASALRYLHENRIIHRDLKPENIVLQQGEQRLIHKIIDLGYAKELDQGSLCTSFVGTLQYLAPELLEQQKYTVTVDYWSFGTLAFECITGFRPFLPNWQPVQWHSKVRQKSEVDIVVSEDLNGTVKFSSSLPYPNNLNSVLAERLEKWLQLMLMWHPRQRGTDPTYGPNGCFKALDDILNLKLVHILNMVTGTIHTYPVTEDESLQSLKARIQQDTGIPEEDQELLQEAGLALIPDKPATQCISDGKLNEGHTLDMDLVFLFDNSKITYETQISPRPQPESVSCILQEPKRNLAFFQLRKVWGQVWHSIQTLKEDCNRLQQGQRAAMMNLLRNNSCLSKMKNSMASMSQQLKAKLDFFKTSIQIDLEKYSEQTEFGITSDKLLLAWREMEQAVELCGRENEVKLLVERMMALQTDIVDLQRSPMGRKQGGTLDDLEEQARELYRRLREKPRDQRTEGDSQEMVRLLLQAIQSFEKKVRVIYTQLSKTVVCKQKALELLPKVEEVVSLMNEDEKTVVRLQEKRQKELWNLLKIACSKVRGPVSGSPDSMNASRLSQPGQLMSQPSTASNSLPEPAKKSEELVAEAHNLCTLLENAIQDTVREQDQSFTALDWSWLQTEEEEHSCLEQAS
Experimental: IKK-β phosphorylates the inhibitory IκB protein associated with NF-κB. Phosphorylation results in the dissociation of IκB from NF-κB, allowing NF-κB to migrate into the cell nucleus where it can activate the transcription of at least 150 genes. The Z9-LYTE™ Kinase Assay Kit—Ser/Thr 5 Peptide is designed to screen for potential IKK-β inhibitory effect using fluorescence resonance energy transfer (FRET) between coumarin and fluorescein for detection by a fluorometer.
The assay was performed according to Z9-LYTE™ KINASE ASSAY KIT—SER/THR 5 PEPTIDE protocol provided by Invitrogen [Invitrogen, Z′-LYTE™ Kinase Assay Kit—Ser/Thr 5 Peptide Protocol, O-062187-r1 US 0405]. Based on the IKK-β certificate of the kit, a kinase concentration of 500 ng/ml was chosen. Km for ATP 9.4 μM was chosen according to an optimization for the LanthaScreen™ kinase assay [http://tools.invitrogen.com/content/sfs/manuals/IKBKB_%28IKK_beta %29_LanthaScreen_Activity.pdf].
(§1) A fluorescence plate reader (Appliskan, Thermo Scientific) was used to detect fluorescence emission signals according to the following parameters:
(§2) Selected alkaloids of the invention prepared in example 1 were tested in 5 times dilutions to establish the 50% inhibitory concentration (IC-50).

[1] = biological target: T2, phosphodiesterase 5A (PDE5) (Homo sapiens, UniProt O76074); experiment: PDE5A Assay Kit, fluorescence polarization; type: biochemical
T2 construct: purchased BSP Bioscience 60350
Experimental: Inhibition of PDE5 blocks hydrolysis of cGMP, thereby increasing levels of cGMP. The PDE5A Assay Kit is designed for identification of PDE5A inhibitors using fluorescence polarization. The assay is based on the binding of a fluorescent nucleotide monophosphate generated by PDE5A to the binding agent.
The assay was performed according to the protocol of the PDE5A assay provided by BSP Bioscience [BSP Bioscience, Data sheet PDE5A Assay Kit, Catalog #60350].
as §1, §2

[2] = biological target: T3, phosphodiesterase 4 (PDE4), PDE4A1A (Homo sapiens, UniProt P27815); experiment: PDE4A1A Assay Kit, fluorescence polarization; type: biochemical
T3 construct: purchased BSP Bioscience 60340
Experimental: Inhibition of PDE4 blocks hydrolysis of cAMP, thereby increasing levels of cAMP. The PDE4A1A Assay Kit is designed for identification of PDE4A1A inhibitors using fluorescence polarization. The assay is based on the binding of fluorescent AMP generated by PDE4A1A to the binding agent.
The assay was performed according to the protocol of the PDE4A1A assay provided by BSP Bioscience [BSP Bioscience, Data sheet PDE4A1A Assay Kit, Catalog #60340].
as §1, §2

[3] = test system: BKS Cg-Lepr db/Lepr db mice; experiment: Hypoglycemic effect in BKS Cg-Lepr db/Lepr db mice (NIDDM model); type: in vivo, mouse; conditions: 300 mg/kg oral daily, day 14 post dosing
Experimental: Male non-insulin dependent diabetic mellitus (NIDDM) mice (BKS Cg-Lepr db/Lepr db) weighing 50+/−5 g were used at age of 12-13 weeks. A daily oral dose of 2000 mg/kg of RAP4 corresponding to corresponding to 112 μg/kg of Ribetril A and 492 μg/kg total Ribetrils as well as 240 μg/kg total Glucoindols was administered orally at a dosing volume of 10 mL/kg to 12 animals for a total of 14 consecutive days. The positive control of metformin (300 mg/kg) and vehicle (2% Tween 80) were each administered orally at a dosing volume of 10 mL/kg to groups of 6 animals once daily for a total of 14 consecutive days. Serum glucose levels were measured by means of an automated analyzer (TBA-120FR, Toshiba) and serum insulin by ELISA at zero min (pre-treatment) on Day 1, and at 90 min after the daily dosing (post-treatment) on Day 7 and Day 14.

[4] = test system: hyperlipidemic guinea pigs; experiment: Hypocholesterolemic effect in hyperlipidemic guinea pigs induced by high fat diet; type: in vivo, guinea pig; conditions: 10 mg/kg oral once daily, 28 days
Experimental: Male Dunkin-Hartley guinea pigs weighing 300+/−30 g were acclimated one week before the in-life phase of the experiment. The study diet (Research Diets Inc, New Brunswick, N.J., USA) contained 15% corn oil and 0.25% cholesterol. A daily oral dose of 2000 mg/kg of RAP2 corresponding 9 μg/kg of Ribetril A and 82 μg/kg total Ribetrils as well as 632 μg/kg total Glucoindols was administered orally at a dosing volume of 10 mL/kg. A daily oral dose of 2000 mg/kg of RAP4 corresponding to 112 μg/kg of Ribetril A and 492 μg/kg total Ribetrils as well as 240 μg/kg total Glucoindols was administered orally at a dosing volume of 10 mL/kg. The positive control atorvastatin (10 mg/kg) and vehicle (0.5% methylcellulose) were each administered orally at a dosing volume of 10 mL/kg. […]
After fasting overnight, blood samples were obtained from the retro-orbital sinus of each animal 5 min before initial test substance and/or vehicle administration (pre-treatment) and 24 hours after dosing on days 14 and 28 (post-treatment). The serum total cholesterol (TC), low density lipoprotein cholesterol (LDL-C), high density lipoprotein cholesterol (HDL-C) and triglycerides (TG) were determined by an enzymatic method (Wako total cholesterol, LDL-C, HDL-C & TG diagnostic kit and Toshiba Automatic Analyzer Model TAB-120FR).

[5] = read-out: Inhibitory effect on PDE4 IC-50
[6] = read-out: Inhibitory effect on IKK-β IC-50
[7] = read-out: Inhibitory effect on PDE5 IC-50

T3 sequence (P27815 1-647 isoform P27815-4): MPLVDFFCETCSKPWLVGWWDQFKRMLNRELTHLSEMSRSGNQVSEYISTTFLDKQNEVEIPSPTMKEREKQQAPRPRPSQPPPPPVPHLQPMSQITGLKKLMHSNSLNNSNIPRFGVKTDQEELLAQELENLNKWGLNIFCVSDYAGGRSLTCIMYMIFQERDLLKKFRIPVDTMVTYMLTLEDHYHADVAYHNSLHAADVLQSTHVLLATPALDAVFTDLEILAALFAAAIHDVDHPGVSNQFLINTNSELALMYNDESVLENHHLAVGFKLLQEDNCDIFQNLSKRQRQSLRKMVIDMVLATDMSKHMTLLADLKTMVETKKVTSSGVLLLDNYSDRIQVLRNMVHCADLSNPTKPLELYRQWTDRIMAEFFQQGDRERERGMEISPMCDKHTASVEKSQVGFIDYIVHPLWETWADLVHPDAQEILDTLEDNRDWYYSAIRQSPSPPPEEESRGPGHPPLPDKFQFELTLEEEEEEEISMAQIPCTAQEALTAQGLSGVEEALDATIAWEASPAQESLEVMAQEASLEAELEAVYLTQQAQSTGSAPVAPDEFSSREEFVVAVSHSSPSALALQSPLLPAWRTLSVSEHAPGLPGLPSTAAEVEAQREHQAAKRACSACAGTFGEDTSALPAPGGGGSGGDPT

SMILES	IC50 [2, 5] [µM]	IC50 (IkappaB kinase β (IKK-β); [6]) [nM]	IC50 [1, 7] [µM]	other results
COc1cc(C(=O)OC/C(C#N)=C/CO[C@@H]2O[C@H](CO)[C@@H](O)[C@H](O)[C@H]2O)ccc1O [Ribetril D, (E)-2-cyano-4-(beta-D-glucopyranosyloxy)but-2-en-1-yl 4-hydroxy-3-methoxybenzoate]				IC50 (IkappaB kinase β (IKK-β)): 37 nM; IC50 [1]: < 0.04 µM; IC50 [2]: 0.23 µM
COC(=O)Cc1cn([C@@H]2O[C@H](CO)[C@@H](O)[C@H](O)[C@H]2O)c2ccccc12 [Glucoindol B, methyl 2-(1-((2R,3R,4S,5S,6R)-3,4,5-trihydroxy-6-(hydroxymethyl)tetrahydro-2H-pyran-2-yl)-1H-indol-3-yl)acetate]	45.6			
COc1cc(/C=C/C(=O)OC/C(C#N)=C/CO[C@@H]2O[C@H](CO)[C@@H](O)[C@H](O)[C@H]2O)ccc1O [Ribetril B, (E)-(E)-2-cyano-4-(beta-D-glucopyranosyloxy)but-2-en-1-yl 3-(4-hydroxy-3-methoxyphenyl)acrylate]	14	6300	5.4	
N#C/C(=C\CO[C@@H]1O[C@H](CO)[C@@H](O)[C@H](O)[C@H]1O)COC(=O)/C=C/c1ccc(O)cc1 [Ribetril C, (E)-(E)-2-cyano-4-(beta-D-glucopyranosyloxy)but-2-en-1-yl 3-(4-hydroxyphenyl)acrylate]	59.7	15300	17.2	
CN(C)C(=N)N=C(N)N [metformin]				serum glucose levels relative to vehicle control [3]: significant decrease
N#C/C(=C\CO[C@@H]1O[C@H](CO)[C@@H](O)[C@H](O)[C@H]1O)COC(=O)/C=C/c1ccc(O)c(O)c1 [Ribetril A, (E)-(E)-2-cyano-4-(((2R,3R,4S,5S,6R)-3,4,5-trihydroxy-6-(hydroxymethyl)tetrahydro-2H-pyran-2-yl)oxy)but-2-en-1-yl 3-(3,4-dihydroxyphenyl)acrylate]	2.95	130	2.1	times lower IC-50 as compared to Ribetril B (IKK-β) (IkappaB kinase β (IKK-β); vs Ribetril B): 48 times; times lower IC-50 as compared to Ribetril C (IKK-β) (IkappaB kinase β (IKK-β); vs Ribetril C): 118 times; times lower IC-50 as compared to Ribetril B (PDE5) ([1]; vs Ribetril B): 3 times; times lower IC-50 as compared to Ribetril C (PDE5) ([1]; vs Ribetril C): 8 times; times lower IC-50 as compared to Ribetril B (PDE4) ([2]; vs Ribetril B): 5 times; times lower IC-50 as compared to Ribetril C (PDE4) ([2]; vs Ribetril C): 20 times
N#C/C(=C\CO[C@@H]1O[C@H](CO)[C@@H](O)[C@H](O)[C@H]1O)COC(=O)c1ccc(O)cc1 [Ribetril E, (E)-2-cyano-4-(beta-D-glucopyranosyloxy)but-2-en-1-yl 4-hydroxybenzoate]	3.5	1900	3.4	
CC(C)c1c(C(=O)Nc2ccccc2)c(-c2ccccc2)c(-c2ccc(F)cc2)n1CC[C@@H](O)C[C@@H](O)CC(=O)O [atorvastatin]				triglyceride reduction [4]: did not significantly reduce triglycerides
O=C(O)Cc1cn([C@@H]2O[C@H](CO)[C@@H](O)[C@H](O)[C@H]2O)c2ccccc12 [Glucoindol A, 2-(1-((2R,3R,4S,5S,6R)-3,4,5-trihydroxy-6-(hydroxymethyl)tetrahydro-2H-pyran-2-yl)-1H-indol-3-yl)acetic acid]	86.1			
